Measurements reported in patent US7923004B2 (priority 2006, dated 2011).

What was measured:
[1] = system: replicon resistant to 10 μM Compound #64 vs wild type Huh-7 Luc-ubi-neo/ET replicon; experiment: Cross resistance of Compound #64 resistant replicon; assay type: cell-based, HCV genotype 1b; conditions: for EC50 Resistant Replicon/EC50 Wild Type Replicon: replicon resistant to 10 μM Compound #64 vs wild type Huh-7 Luc-ubi-neo/ET replicon
[2] = system: HCV genotype 1a replicon (En5-3/Htat2ANeo cells); experiment: HCV-1a Replicon RNA (Taqman) inhibition assay; assay type: cell-based; conditions: Hepatitis C virus, 72 h
[3] = Cell Titer-Glo Cell Viability Assay, genotype 1a cells; assay type: cell-based; conditions: human, En5-3/Htat2ANeo (HCV genotype 1a replicon) cells, HCV-1a assays, read-out: Cytotoxicity* (CC50)
Method: (§1) Cell Seeding and Compound Treatment: Huh-Luc-Neo (Genotype 1b) or En5-3/Htat2ANeo (Genotype 1a) cells are seeded at 5000-7000/well in an opaque-walled 96 plate with Growth Medium (DMEM phenol red free+PS+2 mM glutamine; 100 ul/well). The compounds to be tested for inhibition of cell viability are added to the experimental wells so as to generate a dose response curve (8-9 concentrations, 10 μl/well at 10× assay concentration) and the cells are then incubated (5% CO2, 37° C.) for 72 h.
(§2) Reagent Preparation and Assay: After completion of the incubation period the cell viability measurements are made using the Cell Titre Glo Assay (Promega) according to the manufacturer's recommended protocol. Briefly, the CellTiter-Glo Buffer is thawed and equilibrated to room temperature prior to use. The lyophilized CellTiter-Glo Substrate is also equilibrated to room temperature prior to use. 10 ml of CellTiter-Glo Buffer is then transferred to 1 vial of CellTiter-Glo Substrate and mixed gently with a Vortex. 100 μl of CellTiter-Glo Assay reagent (CellTiter-Glo Buffer+CellTiter-Glo Substrate Mixture) is added to each well. The well contents are mixed for 5 min. on an orbital shaker at room temperature to induce cell lysis and the luminescence is then measured using a luminometer.

[4] = system: HCV genotype 1b replicon (Huh-Luc-Neo cells); experiment: HCV Replicon Luciferase Assay; assay type: cell-based; conditions: Hepatitis C virus, Huh-Luc-Neo cells, genotype 1b, 72 h, read-out: HCV-1b Replicon Inhibition*, Luciferase (EC50)
[5] = system: HCV Genotype 1b luc-neo/ET replicon with Y2065H mutation in NS5A; experiment: Luciferase EC50 in Huh7-Lunet cells with luc-neo/ET/Y2065H mutant vs parental luc-neo/ET replicon; assay type: cell-based; conditions: transient replicons, 72 h
Method: Resistance of Compound #64 (Table 1) and related pyrazoles was then determined by treating Huh7-Lunet cells (Koutsoudakis et al, J. Virol. 81(2):588-98, 2007) transiently electroporated with RNAs transcribed from either the luc-neo/ET/Y2065H mutant and the parental luc-neo/ET replicons (Blight et al, J. Virol. 77(5):3181-90, 2003). Huh7-Lunet expressing the luc-neo/ET/Y2065H mutant and the parental luc-neo/ET replicons were treated with selected compounds for 72 hours. EC50 and CC50 values were determined as described in the HCV Replicon Luciferase Assay and CellTiter-Glo Cell Viability Assay protocols. […] CC50s for the compound vs. the luc-neo/ETIY2065H mutant and parental luc-neo/ET replicons were determined to be>33 μM.

[6] = Cell Titer-Glo Cell Viability Assay, genotype 1b cells; assay type: cell-based; conditions: human, Huh-Luc-Neo (HCV genotype 1b replicon) cells, HCV genotype 1b assays, read-out: Cytotoxicity* (CC50)
Method: as §1, §2

[7] = system: HCV genotype 1b replicon (Huh-Luc-Neo cells); experiment: HCV Replicon RNA (Taqman) Assay, genotype 1b; assay type: cell-based; conditions: Hepatitis C virus, Huh-Luc-Neo cells, genotype 1b, HCV RNA, 72 h, read-out: HCV-1b Replicon Inhibition*, Taqman (EC50)

| Structure (SMILES) | EC50 [2] [nM] | CC50 at 72 h [3] [nM] | further results |
| --- | --- | --- | --- |
| Cc1ccc(O)c(-c2nn(C)cc2C#Cc2ccc(NC(=O)[C@@H]3COCCN3C(=O)[C@H](NC(=O)OC(C)(C)C)c3ccccc3)cc2)c1 |  |  | cross resistance in Compound #64 resistant replicon ([1]; replicon resistant to 10 μM Compound #64): cross resistant; EC50 Resistant Replicon/EC50 Wild Type Replicon [1]: 7.125 |
| COc1ccc2c(O[C@@H]3C[C@H]4C(=O)N[C@]5(C(=O)O)C[C@H]5/C=C\CCCCC[C@H](NC(=O)OC5CCCC5)C(=O)N4C3)cc(-c3csc(NC(C)C)n3)nc2c1 [BILN 2061, reference compound] |  |  | EC50 Resistant Replicon/EC50 Wild Type Replicon [1]: 0.656 |
| N#CCCn1cc(C#Cc2ccc(NC(=O)[C@@H]3COCCN3C(=O)[C@H](NC(=O)c3cnccn3)c3ccccc3)cc2)c(-c2cc(Cl)ccc2O)n1 [Compound 2] | < 1000 | > 33300 |  |
| N#CCCn1cc(C#Cc2ccc(NC(=O)[C@@H]3COCCN3C(=O)[C@H](NC(=O)NC3CC3)c3ccccc3)cc2)c(-c2cc(Cl)ccc2O)n1 [Compound 3] | < 1000 | > 33300 |  |
| N#CCCn1cc(C#Cc2ccc(NC(=O)[C@@H]3COCCN3C(=O)[C@H](NC(=O)N3CCOCC3)c3ccccc3)cc2)c(-c2cc(Cl)ccc2O)n1 [Compound 4] | < 1000 | > 33300 |  |
| Cn1cc(C#Cc2ccc(NC(=O)[C@@H]3COCCN3C(=O)[C@H](NC(=O)c3ccc(C#N)cc3)c3ccccc3)cc2)c(-c2cc(Cl)ccc2O)n1 [Compound 5] | < 1000 | > 33300 |  |
| CC(C)n1cc(C#Cc2ccc(NC(=O)[C@@H]3COCCN3C(=O)[C@H](NC(=O)c3ccccc3)c3ccccc3)cc2)c(-c2cc(Cl)ccc2O)n1 [Compound 6] | < 1000 | > 33300 |  |
| N#CCCn1cc(C#Cc2ccc(NC(=O)[C@@H]3COCCN3C(=O)[C@H](NC(=O)N3CCC(=O)CC3)c3ccccc3)cc2)c(-c2cc(Cl)ccc2O)n1 [Compound 7] | < 1000 | > 33300 |  |
| C[C@@H]1CN(C(=O)N[C@@H](C(=O)N2CCOC[C@H]2C(=O)Nc2ccc(C#Cc3cn(CCC#N)nc3-c3cc(Cl)ccc3O)cc2)c2ccccc2)C[C@H](C)O1 [Compound 8] | < 1000 | > 33300 |  |
| Cn1cc(C#Cc2ccc(NC(=O)[C@@H]3COCCN3C(=O)[C@H](NC(=O)c3cccs3)c3ccccc3)cc2)c(-c2cc(Cl)ccc2O)n1 [Compound 9] | < 1000 | > 33300 |  |
| Cn1cc(C#Cc2ccc(NC(=O)[C@@H]3COCCN3C(=O)[C@H](NC(=O)N3CCC3)c3ccccc3)cc2)c(-c2cc(Cl)ccc2O)n1 [Compound 10] | < 1000 | > 33300 |  |
| CC(C)n1cc(C#Cc2ccc(NC(=O)[C@@H]3COCCN3C(=O)[C@H](NC(=O)NC(C)(C)C)c3ccccc3)cc2)c(-c2cc(Cl)ccc2O)n1 [Compound 11] | < 1000 | > 33300 |  |
| COCC(=O)N[C@@H](C(=O)N1CCOC[C@H]1C(=O)Nc1ccc(C#Cc2cn(C)nc2-c2cc(Cl)ccc2O)cc1)c1ccccc1 [Compound 12] | < 1000 | > 33300 |  |
| N#CCCn1cc(C#Cc2ccc(NC(=O)[C@@H]3COCCN3C(=O)[C@H](NC(=O)c3ccccc3)c3ccccc3)cc2)c(-c2cc(Cl)ccc2O)n1 [Compound 13] | < 1000 | > 33300 |  |
| COC(=O)C1CCCN1C(=O)N[C@@H](C(=O)N1CCOC[C@H]1C(=O)Nc1ccc(C#Cc2cn(CCC#N)nc2-c2cc(Cl)ccc2O)cc1)c1ccccc1 (some centres unmarked) [Compound 14] | < 1000 | > 33300 |  |
| N#CCCn1cc(C#Cc2ccc(NC(=O)[C@@H]3COCCN3C(=O)[C@H](NC(=O)N3CCC3)c3ccccc3)cc2)c(-c2cc(Cl)ccc2O)n1 [Compound 15] | < 1000 | > 33300 |  |
| CN1CCN(C(=O)N[C@@H](C(=O)N2CCOC[C@H]2C(=O)Nc2ccc(C#Cc3cn(CCC#N)nc3-c3cc(Cl)ccc3O)cc2)c2ccccc2)CC1 [Compound 16] | < 1000 | 1000 to 10000 |  |
| Cc1ccc(O)c(-c2nn(C)cc2C#Cc2ccc(NC(=O)[C@@H]3COCCN3C(=O)[C@H](NC(=O)OC(C)(C)C)c3ccccc3)cc2)c1 [Compound 23A] |  |  | EC50 ([4]; GETYPE1B): < 1000 nM; EC50 Luc-neo-ET-Y2065H/EC50 Luc-neo-ET [5]: 6; CC50 at 72 h [6]: > 100000 nM; EC50 ([7]; GETYPE1B): < 1000 nM |
| Cn1cc(C#Cc2ccc(NC(=O)[C@@H]3COCCN3C(=O)[C@H](NC(=O)C3CC3)c3ccccc3)cc2)c(-c2cc(Cl)ccc2O)n1 [Compound 52] |  |  | EC50 [4]: < 1000 nM; EC50 Luc-neo-ET-Y2065H/EC50 Luc-neo-ET [5]: 79; CC50 at 72 h [6]: 10000 to 100000 nM; EC50 [7]: < 1000 nM |
| Cn1cc(C#Cc2ccc(NC(=O)[C@@H]3COCCN3C(=O)[C@H](NC(=O)NC(C)(C)C)c3ccccc3)cc2)c(-c2cc(Cl)ccc2O)n1 [Compound 53] |  |  | EC50 [4]: < 1000 nM; EC50 Luc-neo-ET-Y2065H/EC50 Luc-neo-ET [5]: 71; CC50 at 72 h [6]: 10000 to 100000 nM; EC50 [7]: < 1000 nM |
| Cn1cc(C#Cc2ccc(NC(=O)[C@@H]3COCCN3C(=O)[C@H](NC(=O)N3CCOCC3)c3ccccc3)cc2)c(-c2cc(Cl)ccc2O)n1 [Example 17] |  | > 33300 | EC50 ([2]; GETYPE1A): < 1000 nM |
| CN(C)CCn1cc(C#Cc2ccc(NC(=O)[C@@H]3COCCN3C(=O)[C@H](NC(=O)NOC(C)(C)C)c3ccccc3)cc2)c(-c2cc(Cl)ccc2O)n1 [Example 18] | 1000 to 10000 | 1000 to 10000 |  |
| Cc1ccc(O)c(-c2nn(C)cc2C#Cc2ccc(NC(=O)[C@@H]3COCCN3C(=O)[C@H](NC(=O)N3CCOCC3)c3ccccc3)cc2)c1 [Example 19] | < 1000 | > 33300 |  |
| N#CCCn1cc(C#Cc2ccc(NC(=O)[C@@H]3COCCN3C(=O)[C@H](NC(=O)N3CCNC(=O)C3)c3ccccc3)cc2)c(-c2cc(Cl)ccc2O)n1 [Example 20] | < 1000 | > 33300 |  |
